What follows are compounds tested against T1, FLT3 (Homo sapiens, UniProt P36888) (assay: RBC HotSpot Kinase Assay, FLT3). Details: HotSpot functional assay, isolated kinase enzyme, 33P-ATP.
T1 sequence (P36888 27-993): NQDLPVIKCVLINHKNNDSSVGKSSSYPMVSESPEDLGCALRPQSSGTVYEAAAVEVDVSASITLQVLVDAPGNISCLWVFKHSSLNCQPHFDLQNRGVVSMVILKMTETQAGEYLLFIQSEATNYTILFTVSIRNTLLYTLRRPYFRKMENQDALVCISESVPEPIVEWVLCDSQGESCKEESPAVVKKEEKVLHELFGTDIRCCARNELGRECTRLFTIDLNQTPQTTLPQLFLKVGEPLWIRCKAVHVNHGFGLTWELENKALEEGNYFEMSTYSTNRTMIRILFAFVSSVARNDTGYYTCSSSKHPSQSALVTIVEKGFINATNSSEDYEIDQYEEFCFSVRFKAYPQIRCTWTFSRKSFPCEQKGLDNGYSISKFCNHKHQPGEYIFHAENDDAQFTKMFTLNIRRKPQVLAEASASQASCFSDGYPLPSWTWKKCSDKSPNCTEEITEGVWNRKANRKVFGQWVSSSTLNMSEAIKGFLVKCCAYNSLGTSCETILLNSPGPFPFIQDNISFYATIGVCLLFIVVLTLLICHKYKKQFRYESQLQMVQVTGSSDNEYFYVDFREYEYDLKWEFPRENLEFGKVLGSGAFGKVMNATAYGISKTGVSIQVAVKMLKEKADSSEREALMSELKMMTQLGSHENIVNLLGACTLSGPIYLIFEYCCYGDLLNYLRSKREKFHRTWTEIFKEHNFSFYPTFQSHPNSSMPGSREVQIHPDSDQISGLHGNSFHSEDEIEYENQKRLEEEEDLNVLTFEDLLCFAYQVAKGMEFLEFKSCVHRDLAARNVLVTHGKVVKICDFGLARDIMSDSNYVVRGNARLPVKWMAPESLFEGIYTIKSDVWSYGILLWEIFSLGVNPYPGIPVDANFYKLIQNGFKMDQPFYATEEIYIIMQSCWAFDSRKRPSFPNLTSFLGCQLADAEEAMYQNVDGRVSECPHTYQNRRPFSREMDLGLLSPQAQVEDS
Type: biochemical
Parameters: purchased RBC (Reaction Biology) HotSpot assay
Summary of the method: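 Isolated kinases, possibly truncated or lacking regulatory receptor regions, were preincubated with compound for 20 min at room temp in 20 mM Hepes pH 7.5, 10 mM MgCl2, 1 mM EGTA, 2 mM DTT, 1% DMSO. Reactions were started with ^33P-ATP and run 2 h at room temperature; activity was read by P81 filter binding.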

Compound | IC50
COc1cc2ncc(-c3nc(N[C@H]4CNCC[C@@H]4F)c(F)cc3F)n2nc1C(C)(O)C(F)(F)F (single isomer, unassigned) [Compound 77a] | < 0.5 nM
COc1cc2ncc(-c3nc(N[C@H]4CNC[C@@H]4F)c(F)cc3F)n2nc1C(C)(O)C(F)(F)F (single isomer, unassigned) [Compound 80a] | < 0.5 nM
COc1cc2ncc(-c3nc(N[C@@H]4CCCNC4)c(F)cc3F)n2nc1C(C)(O)C(F)(F)F (single isomer, unassigned) [Compound 81a] | < 0.5 nM
COc1cc2ncc(-c3nc(N[C@H]4CNCC[C@@H]4F)c(F)cc3F)n2nc1C1CC2(CCC2)C1 [Compound 10a, 3,5-difluoro-N-((3S,4S)-4-fluoropiperidin-3-yl)-6-(7-methoxy-6-(spiro[3.3]heptan-2-yl)imidazo[1,2-b]pyridazin-3-yl)pyridin-2-amine] | < 0.5 nM
COc1cc2ncc(-c3nc(N[C@H]4CNC[C@@H]4F)c(F)cc3F)n2nc1C1CC2(CCC2)C1 [Compound 12a, 3,5-difluoro-N-((3S,4S)-4-fluoropyrrolidin-3-yl)-6-(7-methoxy-6-(spiro[3.3]heptan-2-yl)imidazo[1,2-b]pyridazin-3-yl)pyridin-2-amine] | < 0.5 nM
COc1cc2ncc(-c3nc(N[C@H]4CNCC[C@@H]4F)c(F)cc3F)n2nc1C1CCC1 [Compound 15a, 6-(6-cyclobutyl-7-methoxyimidazo[1,2-b]pyridazin-3-yl)-3,5-difluoro-N-((3S,4S)-4-fluoropiperidin-3-yl)pyridin-2-amine] | < 0.5 nM
COc1cc2ncc(-c3nc(N[C@H]4CNCC[C@@H]4F)c(F)cc3F)n2nc1C12CC(C1)C2 [Compound 67a, 6-(6-(bicyclo[1.1.1]pentan-1-yl)-7-methoxyimidazo[1,2-b]pyridazin-3-yl)-3,5-difluoro-N-((3S,4S)-4-fluoropiperidin-3-yl)pyridin-2-amine] | < 0.5 nM
